According to patent US5475132A, “Antifungal agents based on amides containing a phenyl group” (Rhone-Poulenc Agrochimie, priority 1988, dated 1995):

Tested on: Phytophthora citrophthora
Experiment: Example B3: action on phytopathogenic soil fungi, growth on agar in Petri dishes
Format: cell-based
Settings: 120 h, 30 ppm, agar medium, 22° C., 5 days, read-out: inhibition of the development of the fungus

Row | Structure (SMILES) | inhibition at 30 ppm
1 | COc1ccc(-c2cc(-c3ccc(C)cc3)ccc2C(=O)N(C)CCO)cc1OC [Compound 216] | ≥ 80%
2 | COc1ccc(-c2nc(-c3ccccc3)ccc2C(=O)N(C)CCO)cc1OC [Compound 395] | ≥ 80%
3 | COCC1CCCN1C(=O)c1sc2ccccc2c1-c1ccc(OC)c(OC)c1 (stereo not drawn) [Compound 163] | ≥ 80%
4 | COc1ccc(-c2c(C(=O)N3CCOCC3)sc3ccc(NC(=O)C(F)(F)F)cc23)cc1OC [Compound 116] | ≥ 80%
5 | COc1ccc(-c2c(C(=O)N3CCOCC3)cc(-c3ccc(F)cc3)n2C)cc1OC [Compound 607, 5-(4-fluorophenyl)-2-(3,4-dimethoxyphenyl)-1-methyl-3-(morpholinocarbonyl)pyrrole] | ≥ 80%
6 | COc1ccc(-c2nc(-c3ccc(Br)cc3)ccc2C(=O)N2CCOCC2)cc1OC [Compound 385] | ≥ 80%
7 | COc1ccc(-c2nc(Sc3ccc(Cl)c(Cl)c3)ncc2C(=O)N2CCOCC2)cc1OC [Compound 450] | ≥ 80%
8 | CCN(C)C(=O)c1ccc(-c2ccc(F)cc2)cc1-c1ccc2c(c1)OCO2 [Compound 228] | ≥ 80%
9 | C=C(C)c1ccc(C(=O)N(CC)CC)c(-c2ccc(OC)c(OC)c2)c1 [Compound 214] | ≥ 80%
10 | COc1ccc(-c2c(C(=O)N3CCOCC3)sc3ccc(-c4ccccc4)cc23)cc1OC [Compound 135] | ≥ 80%
11 | COc1ccc(-c2nc(Oc3ccc(Cl)c(C)c3)ncc2C(=O)N2CCOCC2)cc1OC [Compound 441] | ≥ 80%
12 | COc1ccc(-c2c(C(=O)N3CCOCC3)sc3c(NC(=O)C(F)(F)F)cccc23)cc1OC [Compound 131] | ≥ 80%
13 | COc1ccc(-c2nc(-c3ccco3)ccc2C(=O)N2CCOCC2)cc1OC [Compound 3116] | ≥ 80%
14 | COc1ccc(-c2c(C(=O)N3CCOCC3)sc3ccc(Br)cc23)cc1OC [Compound 114] | ≥ 80%
15 | COc1ccc(-c2nc(-c3ccc(Cl)cc3)ccc2C(=O)N2CCCCC2)cc1OC [Compound 376] | ≥ 80%
16 | COc1ccc(-c2nc(Oc3ccc(Br)cc3)ncc2C(=O)N2CCOCC2)cc1OC [Compound 438] | ≥ 80%
17 | COc1ccc(-c2c(C(=O)N3CCOCC3)sc3ccc(NC(C)=O)cc23)cc1OC [Compound 115] | ≥ 80%
18 | CCN(CC)C(=O)c1ccc(Cl)cc1-c1ccc(OC)c(OC)c1 [Compound 211] | ≥ 80%
19 | COc1ccc(-c2nc(-c3ccc(Br)cc3)ccc2C(=O)N(C)CCO)cc1OC [Compound 380] | ≥ 80%
20 | COc1ccc(-c2nc(Oc3ccc(Cl)cc3)ncc2C(=O)N2CCOCC2)cc1OC [Compound 437] | ≥ 80%
21 | COc1ccc(-c2nc(C=C(C)C)ccc2C(=O)N2CCOCC2)cc1OC [Compound 3111] | ≥ 80%
22 | COCCN(C)C(=O)c1ccc(-c2ccc(F)cc2)nc1-c1ccc(OC)c(OC)c1 [Compound 353] | ≥ 80%
23 | COc1ccc(-c2nc(Oc3ccccc3C)ncc2C(=O)N2CCOCC2)cc1OC [Compound 440] | ≥ 80%
24 | COc1ccc(-c2nc(-c3ccc(C4CC4(Cl)Cl)cc3)ccc2C(=O)N2CCOCC2)cc1OC (stereo not drawn) [Compound 355] | ≥ 80%
25 | COc1ccc(-c2c(C(=O)N3CCOCC3)sc3cc(Cl)ccc23)cc1OC [Compound 125] | ≥ 80%
26 | COCCN(C)C(=O)c1ccc(-c2ccsc2)nc1-c1ccc(OC)c(OC)c1 [Compound 3117] | ≥ 80%
27 | COc1ccc(-c2nc(-c3ccc(Cl)cc3)ccc2C(=O)N(C)CC2CCCO2)cc1OC (stereo not drawn) [Compound 381] | ≥ 80%
28 | COc1ccc(-c2c(C(=O)N3CCOCC3)sc3ccc(F)cc23)cc1OC [Compound 117] | ≥ 80%
29 | COc1ccc(-c2cc(-c3ccsc3)ccc2C(=O)N2CCOCC2)cc1OC [Compound 238] | ≥ 80%
30 | COc1ccc(-c2c(C(=O)N3CCOCC3)sc3cccc(F)c23)cc1OC [Compound 129] | ≥ 80%
